Assay results taken from PubChem BioAssay AID1963966 (Molecular Pharmacology Branch, DTP, NCI, 2024).

Tested on: 935938-334-R-J1-PDC spheroids with HUVEC/MSC, viability
Test: Anticancer human tumor 935938-334-R-J1-PDC patient-derived small intestine adenocarcinoma cell line growth inhibition [PI3K]
Conditions: for IC50: curve of first compound; for viability, T/C: stronger effect = lower value
How it was run: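 Combination activity was assessed by viability in multicellular tumor spheroids carrying HUVEC and MSC components. Agents were tested with PI3K inhibitors from a Cmax-based top dose (or 10 microM) downward in half-log increments.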

[1] = second compound 0.00316 µM, first compound 0.00316 µM
[2] = second compound 0.00316 µM, first compound 0.01 µM
[3] = second compound 0.00316 µM, first compound 0.0316 µM
[4] = second compound 0.00316 µM, first compound 0.1 µM
[5] = second compound 0.00316 µM, first compound 0.316 µM
[6] = second compound 0.00316 µM, first compound 1 µM
[7] = second compound 0.01 µM, first compound 0.00316 µM
[8] = second compound 0.01 µM, first compound 0.01 µM
[9] = second compound 0.01 µM, first compound 0.0316 µM
[10] = second compound 0.01 µM, first compound 0.1 µM
[11] = second compound 0.01 µM, first compound 0.316 µM
[12] = second compound 0.01 µM, first compound 1 µM
[13] = second compound 0.0316 µM, first compound 0.00316 µM
[14] = second compound 0.0316 µM, first compound 0.01 µM
[15] = second compound 0.0316 µM, first compound 0.0316 µM
[16] = second compound 0.0316 µM, first compound 0.1 µM
[17] = second compound 0.0316 µM, first compound 0.316 µM
[18] = second compound 0.0316 µM, first compound 1 µM
[19] = second compound 0.1 µM, first compound 0.00316 µM
[20] = second compound 0.1 µM, first compound 0.01 µM
[21] = second compound 0.1 µM, first compound 0.0316 µM
[22] = second compound 0.1 µM, first compound 0.1 µM
[23] = second compound 0.1 µM, first compound 0.316 µM
[24] = second compound 0.1 µM, first compound 1 µM
[25] = second compound 0.316 µM, first compound 0.00316 µM
[26] = second compound 0.316 µM, first compound 0.01 µM
[27] = second compound 0.316 µM, first compound 0.0316 µM
[28] = second compound 0.316 µM, first compound 0.1 µM
[29] = second compound 0.316 µM, first compound 0.316 µM
[30] = second compound 0.316 µM, first compound 1 µM
[31] = second compound 1 µM, first compound 0.00316 µM
[32] = second compound 1 µM, first compound 0.01 µM
[33] = second compound 1 µM, first compound 0.0316 µM
[34] = second compound 1 µM, first compound 0.1 µM
[35] = second compound 1 µM, first compound 0.316 µM
[36] = second compound 1 µM, first compound 1 µM
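Also: compound exposure lasted seven days before viability was read.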
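For viability, T/C in this document: percent of vehicle DMSO treated spheroid viability so 100% = untreated.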

SMILES: CCN1CCN(Cc2ccc(Nc3ncc(F)c(-c4cc(F)c5nc(C)n(C(C)C)c5c4)n3)nc2)CC1 + CC(Nc1ccc2c(c1)OCCn1cc(N3C(=O)OCC3C(F)F)nc1-2)C(N)=O
- IC50 (second compound 0.00316 µM): 126 nM
- IC50 (second compound 0.01 µM): 168 nM
- IC50 (second compound 0.0316 µM): 46.3 nM
- IC50 (second compound 0.1 µM): < 3.16 nM
- IC50 (second compound 0.316 µM): 32.3 nM
- IC50 (second compound 1 µM): < 3.16 nM
- viability, T/C [1]: 60.1%
- viability, T/C [2]: 67.3%
- viability, T/C [3]: 66%
- viability, T/C [4]: 49.8%
- viability, T/C [5]: 37.6%
- viability, T/C [6]: 18.1%
- viability, T/C [7]: 59.6%
- viability, T/C [8]: 58%
- viability, T/C [9]: 65%
- viability, T/C [10]: 64.4%
- viability, T/C [11]: 35.6%
- viability, T/C [12]: 15.5%
- viability, T/C [13]: 83.7%
- viability, T/C [14]: 68.3%
- viability, T/C [15]: 56.8%
- viability, T/C [16]: 39%
- viability, T/C [17]: 28.8%
- viability, T/C [18]: 19.6%
- viability, T/C [19]: 42.6%
- viability, T/C [20]: 55.9%
- viability, T/C [21]: 51.3%
- viability, T/C [22]: 45.1%
- viability, T/C [23]: 28.9%
- viability, T/C [24]: 16.2%
- viability, T/C [25]: 43%
- viability, T/C [26]: 51.5%
- viability, T/C [27]: 56%
- viability, T/C [28]: 26.8%
- viability, T/C [29]: 23.3%
- viability, T/C [30]: 14.7%
- viability, T/C [31]: 44.3%
- viability, T/C [32]: 38%
- viability, T/C [33]: 50.3%
- viability, T/C [34]: 25.4%
- viability, T/C [35]: 22.3%
- viability, T/C [36]: 20.6%

SMILES: Cn1cnc2c(F)c(Nc3ccc(Br)cc3Cl)c(C(=O)NOCCO)cc21 + CC(Nc1ncnc2nc[nH]c12)c1cc2cccc(Cl)c2c(=O)n1-c1ccccc1
- IC50 (second compound 0.0316 µM): 68.7 nM
- IC50 (second compound 0.1 µM): 110 nM
- IC50 (second compound 0.316 µM): 78.4 nM
- IC50 (second compound 1 µM): 81.4 nM
- IC50 (second compound 3.16 µM): 30.5 nM
- IC50 (second compound 10 µM): 51.5 nM
- viability, T/C (second compound 0.0316 µM, first compound 0.00949 µM): 82.2%
- viability, T/C (second compound 0.0316 µM, first compound 0.03 µM): 63.5%
- viability, T/C (second compound 0.0316 µM, first compound 0.0949 µM): 43.2%
- viability, T/C (second compound 0.0316 µM, first compound 0.3 µM): 34.5%
- viability, T/C (second compound 0.0316 µM, first compound 0.949 µM): 27.5%
- viability, T/C (second compound 0.0316 µM, first compound 3 µM): 21.8%
- viability, T/C (second compound 0.1 µM, first compound 0.00949 µM): 76%
- viability, T/C (second compound 0.1 µM, first compound 0.03 µM): 71.7%
- viability, T/C (second compound 0.1 µM, first compound 0.0949 µM): 47.4%
- viability, T/C (second compound 0.1 µM, first compound 0.3 µM): 38.2%
- viability, T/C (second compound 0.1 µM, first compound 0.949 µM): 30.9%
- viability, T/C (second compound 0.1 µM, first compound 3 µM): 20.8%
- viability, T/C (second compound 0.316 µM, first compound 0.00949 µM): 73.5%
- viability, T/C (second compound 0.316 µM, first compound 0.03 µM): 70.4%
- viability, T/C (second compound 0.316 µM, first compound 0.0949 µM): 41.4%
- viability, T/C (second compound 0.316 µM, first compound 0.3 µM): 35.4%
- viability, T/C (second compound 0.316 µM, first compound 0.949 µM): 22.3%
- viability, T/C (second compound 0.316 µM, first compound 3 µM): 20%
- viability, T/C (second compound 1 µM, first compound 0.00949 µM): 73.9%
- viability, T/C (second compound 1 µM, first compound 0.03 µM): 65.6%
- viability, T/C (second compound 1 µM, first compound 0.0949 µM): 47.7%
- viability, T/C (second compound 1 µM, first compound 0.3 µM): 30.9%
- viability, T/C (second compound 1 µM, first compound 0.949 µM): 26.2%
- viability, T/C (second compound 1 µM, first compound 3 µM): 22.6%
- viability, T/C (second compound 3.16 µM, first compound 0.00949 µM): 51%
- viability, T/C (second compound 3.16 µM, first compound 0.03 µM): 56.6%
- viability, T/C (second compound 3.16 µM, first compound 0.0949 µM): 38.6%
- viability, T/C (second compound 3.16 µM, first compound 0.3 µM): 30.6%
- viability, T/C (second compound 3.16 µM, first compound 0.949 µM): 27.4%
- viability, T/C (second compound 3.16 µM, first compound 3 µM): 16%
- viability, T/C (second compound 10 µM, first compound 0.00949 µM): 65.2%
- viability, T/C (second compound 10 µM, first compound 0.03 µM): 59.6%
- viability, T/C (second compound 10 µM, first compound 0.0949 µM): 39.4%
- viability, T/C (second compound 10 µM, first compound 0.3 µM): 25.6%
- viability, T/C (second compound 10 µM, first compound 0.949 µM): 22.6%
- viability, T/C (second compound 10 µM, first compound 3 µM): 17.6%

SMILES: CCN1CCN(Cc2ccc(Nc3ncc(F)c(-c4cc(F)c5nc(C)n(C(C)C)c5c4)n3)nc2)CC1 + COc1c(OCCCN2CCOCC2)ccc2c3n(c(=NC(=O)c4cnc(N)nc4)nc12)CCN3
- IC50 (second compound 0.00316 µM): 296 nM
- IC50 (second compound 0.01 µM): 582 nM
- IC50 (second compound 0.0316 µM): 91.8 nM
- IC50 (second compound 0.1 µM): < 3.16 nM
- IC50 (second compound 0.316 µM): < 3.16 nM
- IC50 (second compound 1 µM): < 3.16 nM
- viability, T/C [1]: 80.1%
- viability, T/C [2]: 93.5%
- viability, T/C [3]: 89.8%
- viability, T/C [4]: 72%
- viability, T/C [5]: 49.9%
- viability, T/C [6]: 43.5%
- viability, T/C [7]: 97.4%
- viability, T/C [8]: 74%
- viability, T/C [9]: 68.6%
- viability, T/C [10]: 60.4%
- viability, T/C [11]: 51.8%
- viability, T/C [12]: 47.1%
- viability, T/C [13]: 66.5%
- viability, T/C [14]: 66.1%
- viability, T/C [15]: 60.8%
- viability, T/C [16]: 47.8%
- viability, T/C [17]: 38.8%
- viability, T/C [18]: 30.3%
- viability, T/C [19]: 45.9%
- viability, T/C [20]: 40.7%
- viability, T/C [21]: 37%
- viability, T/C [22]: 37.7%
- viability, T/C [23]: 29.6%
- viability, T/C [24]: 28.4%
- viability, T/C [25]: 36.2%
- viability, T/C [26]: 33.8%
- viability, T/C [27]: 27.1%
- viability, T/C [28]: 29.6%
- viability, T/C [29]: 33.1%
- viability, T/C [30]: 30.8%
- viability, T/C [31]: 32.6%
- viability, T/C [32]: 35%
- viability, T/C [33]: 35.6%
- viability, T/C [34]: 28.5%
- viability, T/C [35]: 32.7%
- viability, T/C [36]: 28.6%
